From article PMC11580438, “Enhanced cell stress response and protein degradation capacity underlie artemisinin resistance in Plasmodium falciparum” (mSphere, 2024)

Experiments:
[1] = target: T1, P. falciparum proteasome, β2 activity (20S CP / 26S) (Plasmodium falciparum, UniProt Q8I6T3); experiment: Ac-RLR-AMC cleavage in lysate of treated trophozoites; type: cell-based; conditions: intact parasites treated 3 h with 50 or 700 nM, then lysed; direct action on the proteasome not shown; non-specific alkylator; pH 7.5, 37 °C
T1 construct: gene PF3D7_1328100; native proteasome in NP-40 lysate of 26-30 hpi trophozoites; with Proteasome subunit beta type-5; Proteasome subunit beta type-6 (beta1 subunit)
T1 sequence (Q8I6T3 entry or part of it): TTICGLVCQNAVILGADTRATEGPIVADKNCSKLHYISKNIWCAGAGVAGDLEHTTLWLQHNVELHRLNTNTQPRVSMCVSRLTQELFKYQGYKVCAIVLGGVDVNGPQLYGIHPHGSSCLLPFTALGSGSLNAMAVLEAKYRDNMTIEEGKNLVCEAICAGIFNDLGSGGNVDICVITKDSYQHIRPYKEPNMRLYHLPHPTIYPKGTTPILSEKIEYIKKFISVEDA

[2] = target: T2, P. falciparum proteasome, β1 activity (20S CP / 26S) (Plasmodium falciparum, UniProt Q8I0U7); experiment: Ac-nLPnLD-AMC cleavage in lysate of treated trophozoites; type: cell-based; conditions: intact parasites treated 3 h with 50 or 700 nM, then lysed; direct action on the proteasome not shown; non-specific alkylator; pH 7.5, 37 °C
T2 construct: gene PF3D7_0931800; native proteasome in NP-40 lysate of 26-30 hpi trophozoites; with Proteasome subunit beta type-7 (beta2 subunit); Proteasome subunit beta type-5
T2 sequence (Q8I0U7 entry or part of it): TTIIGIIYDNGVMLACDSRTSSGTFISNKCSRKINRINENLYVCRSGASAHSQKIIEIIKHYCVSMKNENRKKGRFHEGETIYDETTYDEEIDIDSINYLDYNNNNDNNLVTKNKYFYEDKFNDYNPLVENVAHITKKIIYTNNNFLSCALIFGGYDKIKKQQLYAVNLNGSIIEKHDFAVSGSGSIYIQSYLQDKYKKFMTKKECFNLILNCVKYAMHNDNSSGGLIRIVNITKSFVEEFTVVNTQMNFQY

[3] = target: T3, P. falciparum proteasome, β5 activity (20S CP / 26S) (Plasmodium falciparum, UniProt Q8IJT1); experiment: Suc-LLVY-AMC cleavage in lysate of treated trophozoites; type: cell-based; conditions: intact parasites treated 3 h with 50 or 700 nM, then lysed; direct action on the proteasome not shown; non-specific alkylator; pH 7.5, 37 °C
T3 construct: gene PF3D7_1011400; native proteasome in NP-40 lysate of 26-30 hpi trophozoites; with Proteasome subunit beta type-7 (beta2 subunit); Proteasome subunit beta type-6 (beta1 subunit)
T3 sequence (Q8IJT1 entry or part of it): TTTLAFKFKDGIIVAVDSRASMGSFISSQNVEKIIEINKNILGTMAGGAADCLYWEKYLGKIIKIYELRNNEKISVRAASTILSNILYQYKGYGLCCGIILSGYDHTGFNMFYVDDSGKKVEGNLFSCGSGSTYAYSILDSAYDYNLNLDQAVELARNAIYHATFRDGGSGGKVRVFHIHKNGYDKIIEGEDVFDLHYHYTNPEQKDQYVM

[4] = test system: T4, P. falciparum proteasome, β5 activity (20S CP / 26S); conditions: intact Kelch13 C580Y parasites treated 3 h, then lysed; direct action on the proteasome not shown; 6 µM substrate, pH 7.5, 37 °C; mutation in the neighbouring β2 subunit, β5 wild type
T4 construct: gene beta5

[5] = target: T3, P. falciparum proteasome, β5 activity (20S CP / 26S); experiment: Suc-LLVY-AMC cleavage in lysate of treated trophozoites; type: cell-based

Row | Compound | % activity [1] | % activity [2] | % activity [3] | % inhibition at 3 μM [4] [%] | inhibition at 3 µM [5] [%]
1 | C[C@@H]1CC[C@H]2[C@@H](C)C(O)O[C@@H]3O[C@@]4(C)CC[C@@H]1[C@]32OO4 (some centres unmarked) [DHA] | DHA inhibited all three catalytic subunits of proteasomes derived from Kelch13^WT | DHA inhibited all three catalytic subunits of proteasomes derived from Kelch13^WT | DHA inhibited all three catalytic subunits of proteasomes derived from Kelch13^WT | – | –
2 | c1cc(C2CCC3(CC2)OOC2(O3)C3CC4CC(C3)CC2C4)ccc1OCCN1CCOCC1 (centres unmarked) [OZ439] | – | – | – | 52 | 28
